Entries after “also recorded” stand apart in the source; their conditions may differ. Where a SMILES comes first, the peptide text is derived from it. Bridges are numbered along the chain shown (N, C = ends). Where no end group is shown, it is not given here.
Assays:
NaV1.7 [1] = details: cited from earlier work
N-type calcium channels = details: cited from earlier work
[2] = system: TTX-sensitive sodium channel; details: cited from earlier work
NaV1.7 [3] = molecular target: T1, NaV1.7 (Homo sapiens, UniProt Q15858); assay: NaV1.7 gating kinetics (I–V, activation, inactivation, repriming); details: 10 nM toxin; for Reduction of NaV1.7 channel current: at –5 mV, n = 10
T1 sequence (Q07699 19-218): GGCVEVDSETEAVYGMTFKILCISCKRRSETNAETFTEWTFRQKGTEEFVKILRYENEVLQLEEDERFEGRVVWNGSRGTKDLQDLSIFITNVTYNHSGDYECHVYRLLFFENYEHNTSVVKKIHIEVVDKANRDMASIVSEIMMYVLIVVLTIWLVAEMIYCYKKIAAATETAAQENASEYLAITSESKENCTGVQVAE
T1 sequence (Q15858 other isoform, or with tags, fused parts or gaps): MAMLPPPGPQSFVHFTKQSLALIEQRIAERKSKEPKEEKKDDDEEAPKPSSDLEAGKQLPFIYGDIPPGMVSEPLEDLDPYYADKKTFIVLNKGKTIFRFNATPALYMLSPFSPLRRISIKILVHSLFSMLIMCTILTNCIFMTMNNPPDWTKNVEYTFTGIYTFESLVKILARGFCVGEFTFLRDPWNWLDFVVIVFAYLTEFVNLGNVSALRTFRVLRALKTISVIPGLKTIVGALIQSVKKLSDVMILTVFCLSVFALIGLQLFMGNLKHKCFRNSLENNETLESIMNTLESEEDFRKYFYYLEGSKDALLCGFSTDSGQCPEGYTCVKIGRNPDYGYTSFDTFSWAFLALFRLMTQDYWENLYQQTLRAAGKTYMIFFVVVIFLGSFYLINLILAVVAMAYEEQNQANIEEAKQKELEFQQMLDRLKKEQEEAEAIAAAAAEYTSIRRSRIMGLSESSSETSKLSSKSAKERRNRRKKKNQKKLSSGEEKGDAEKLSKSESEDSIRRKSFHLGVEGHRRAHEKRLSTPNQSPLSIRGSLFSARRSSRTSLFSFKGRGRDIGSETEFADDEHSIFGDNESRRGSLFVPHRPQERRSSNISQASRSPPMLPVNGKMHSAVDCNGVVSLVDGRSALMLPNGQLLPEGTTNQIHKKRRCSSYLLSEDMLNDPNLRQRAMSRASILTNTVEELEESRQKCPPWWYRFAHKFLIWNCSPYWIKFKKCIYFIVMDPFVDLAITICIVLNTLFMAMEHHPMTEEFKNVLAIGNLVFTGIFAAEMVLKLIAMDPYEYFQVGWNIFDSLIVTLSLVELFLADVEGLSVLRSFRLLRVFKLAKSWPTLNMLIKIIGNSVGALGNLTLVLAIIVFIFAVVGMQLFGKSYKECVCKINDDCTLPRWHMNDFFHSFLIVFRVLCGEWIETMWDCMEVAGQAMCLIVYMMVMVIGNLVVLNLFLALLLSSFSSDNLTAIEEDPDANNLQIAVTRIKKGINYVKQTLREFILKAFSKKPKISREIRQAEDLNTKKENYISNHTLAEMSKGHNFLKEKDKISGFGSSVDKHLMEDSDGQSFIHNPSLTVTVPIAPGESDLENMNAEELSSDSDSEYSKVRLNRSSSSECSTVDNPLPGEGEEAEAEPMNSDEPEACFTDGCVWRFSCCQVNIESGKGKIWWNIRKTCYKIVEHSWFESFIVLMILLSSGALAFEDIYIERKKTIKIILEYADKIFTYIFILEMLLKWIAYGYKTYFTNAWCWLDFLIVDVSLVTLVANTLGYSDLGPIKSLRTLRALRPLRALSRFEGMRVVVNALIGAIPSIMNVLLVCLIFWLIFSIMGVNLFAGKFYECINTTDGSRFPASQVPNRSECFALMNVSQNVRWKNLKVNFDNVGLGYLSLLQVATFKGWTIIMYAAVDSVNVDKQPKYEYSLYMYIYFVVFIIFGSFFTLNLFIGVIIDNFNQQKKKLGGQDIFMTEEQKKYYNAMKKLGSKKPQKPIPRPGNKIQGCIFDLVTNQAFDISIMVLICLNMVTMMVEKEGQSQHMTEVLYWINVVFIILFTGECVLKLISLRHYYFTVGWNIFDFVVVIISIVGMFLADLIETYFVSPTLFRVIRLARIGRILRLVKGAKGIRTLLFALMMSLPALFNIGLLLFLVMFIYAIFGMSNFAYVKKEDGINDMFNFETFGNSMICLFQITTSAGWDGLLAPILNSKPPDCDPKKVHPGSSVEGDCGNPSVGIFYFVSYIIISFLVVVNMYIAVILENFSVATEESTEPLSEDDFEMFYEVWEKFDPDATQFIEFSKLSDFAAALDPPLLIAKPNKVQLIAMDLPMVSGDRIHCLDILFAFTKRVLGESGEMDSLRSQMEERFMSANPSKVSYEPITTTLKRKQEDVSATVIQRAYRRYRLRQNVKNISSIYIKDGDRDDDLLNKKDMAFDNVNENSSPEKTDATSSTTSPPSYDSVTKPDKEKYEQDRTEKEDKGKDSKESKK
T1 sequence (O60939 30-215, further chain): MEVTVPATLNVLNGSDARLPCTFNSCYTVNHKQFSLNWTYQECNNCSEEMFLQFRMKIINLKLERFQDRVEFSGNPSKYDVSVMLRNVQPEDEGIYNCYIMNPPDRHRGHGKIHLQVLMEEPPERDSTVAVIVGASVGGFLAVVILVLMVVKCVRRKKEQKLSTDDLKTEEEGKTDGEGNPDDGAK

[4] = system: TTX-S sodium channels (NaV1.2–1.4, NaV1.6, and NaV1.7); format: cell-based
rNaV1.3 = molecular target: T2, rNaV1.3 (Rattus norvegicus, UniProt P08104); assay: cell-based; format: cell-based
T2 construct: expressed in transfected cells; host or cells: HEK293T

hNaV1.9 = format: cell-based, human
NaV1.7 [5] = molecular target: T1, NaV1.7; assay: Time course of block and washout of NaV1.7 peak current; details: 100 nM toxin, n = 3
NaV1.7 over NaV1.4 = assay: Selectivity of NaV1.7 over NaV1.4; format: cell-based; details: Cl6a
mNaV1.6 = molecular target: T3, mNaV1.6 (Mus musculus, UniProt Q9WTU3); assay: cell-based; format: cell-based
T3 construct: expressed in transfected cells; host or cells: HEK293T

rNaV1.8 = format: cell-based, rat
rNaV1.4 = molecular target: T4, rNaV1.4 (Rattus norvegicus, UniProt P15390); assay: cell-based; format: cell-based
T4 construct: expressed in transfected cells; host or cells: HEK293T
T4 sequence (P15390 whole entry): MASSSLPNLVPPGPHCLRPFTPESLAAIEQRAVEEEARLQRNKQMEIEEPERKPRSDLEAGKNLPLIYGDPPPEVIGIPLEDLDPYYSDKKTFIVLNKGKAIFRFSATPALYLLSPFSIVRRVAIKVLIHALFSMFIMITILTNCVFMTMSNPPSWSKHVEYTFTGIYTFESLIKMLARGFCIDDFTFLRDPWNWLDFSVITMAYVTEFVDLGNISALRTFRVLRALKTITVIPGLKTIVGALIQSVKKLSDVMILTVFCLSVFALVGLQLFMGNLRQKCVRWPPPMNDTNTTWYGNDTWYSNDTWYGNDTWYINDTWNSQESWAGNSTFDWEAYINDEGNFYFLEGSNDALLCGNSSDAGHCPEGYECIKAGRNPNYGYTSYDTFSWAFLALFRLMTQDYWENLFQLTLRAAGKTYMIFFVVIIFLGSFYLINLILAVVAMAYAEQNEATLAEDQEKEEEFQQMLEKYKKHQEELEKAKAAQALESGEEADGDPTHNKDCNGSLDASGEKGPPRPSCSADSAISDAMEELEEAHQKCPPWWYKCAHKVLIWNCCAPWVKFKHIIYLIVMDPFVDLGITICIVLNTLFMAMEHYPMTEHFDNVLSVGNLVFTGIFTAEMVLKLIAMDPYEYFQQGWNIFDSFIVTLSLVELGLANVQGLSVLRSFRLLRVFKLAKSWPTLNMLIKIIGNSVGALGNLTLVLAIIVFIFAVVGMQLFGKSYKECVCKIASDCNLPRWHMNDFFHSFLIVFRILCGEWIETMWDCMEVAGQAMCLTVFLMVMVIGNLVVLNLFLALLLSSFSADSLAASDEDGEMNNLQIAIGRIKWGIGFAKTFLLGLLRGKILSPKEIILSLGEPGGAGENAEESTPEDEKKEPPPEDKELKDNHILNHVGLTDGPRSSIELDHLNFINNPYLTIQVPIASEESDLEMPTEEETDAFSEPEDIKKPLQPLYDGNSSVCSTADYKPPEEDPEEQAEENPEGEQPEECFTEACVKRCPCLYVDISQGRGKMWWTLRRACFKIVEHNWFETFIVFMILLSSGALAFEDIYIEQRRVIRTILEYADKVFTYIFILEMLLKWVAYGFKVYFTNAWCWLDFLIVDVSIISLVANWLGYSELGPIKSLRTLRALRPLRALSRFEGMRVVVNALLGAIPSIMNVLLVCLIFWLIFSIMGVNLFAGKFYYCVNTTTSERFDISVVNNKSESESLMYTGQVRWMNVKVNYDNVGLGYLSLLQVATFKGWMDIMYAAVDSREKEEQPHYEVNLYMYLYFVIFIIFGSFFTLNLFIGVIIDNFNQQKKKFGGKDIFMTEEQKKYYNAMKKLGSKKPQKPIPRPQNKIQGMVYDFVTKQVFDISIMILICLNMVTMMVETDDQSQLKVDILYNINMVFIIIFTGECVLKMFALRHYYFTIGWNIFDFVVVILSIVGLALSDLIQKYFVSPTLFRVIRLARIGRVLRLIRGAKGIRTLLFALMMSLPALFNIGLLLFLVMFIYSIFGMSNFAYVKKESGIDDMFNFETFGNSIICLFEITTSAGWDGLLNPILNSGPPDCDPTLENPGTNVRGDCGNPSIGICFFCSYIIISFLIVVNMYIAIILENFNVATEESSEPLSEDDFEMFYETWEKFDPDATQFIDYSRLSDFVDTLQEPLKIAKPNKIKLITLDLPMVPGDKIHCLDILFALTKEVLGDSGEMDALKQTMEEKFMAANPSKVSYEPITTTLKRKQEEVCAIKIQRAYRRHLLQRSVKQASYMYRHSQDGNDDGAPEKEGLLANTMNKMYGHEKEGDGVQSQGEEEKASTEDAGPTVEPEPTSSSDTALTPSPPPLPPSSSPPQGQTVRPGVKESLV

rNaV1.2 = molecular target: T5, rNaV1.2 (Rattus norvegicus, UniProt P04775); assay: cell-based; format: cell-based
T5 construct: expressed in transfected cells; host or cells: HEK293T

hNaV1.5 = format: cell-based, human
hNaV1.7 = molecular target: T6, hNaV1.7 (Homo sapiens, UniProt Q15858); assay: cell-based; format: cell-based
T6 construct: expressed in transfected cells; host or cells: HEK293T
T6 sequence (Q15858 other isoform, or with tags, fused parts or gaps): as the sequence (Q15858 other isoform, or with tags, fused parts or gaps) above
T6 sequence (O60939 30-215, further chain): as the sequence (O60939 30-215, further chain) above
T6 sequence (Q07699 19-218, further chain): as the sequence (Q07699 19-218) above

[6] = system: TTX-R sodium channels (NaV1.5, NaV1.8, and NaV1.9); format: cell-based

HWTX-IV
Binding site on NaV1.7 (NaV1.7 [1]): site 4 toxins that interact with the DII S3–S4 linker of NaV1.7 channels

HWTX-I (ACKGVFDACTPGKNECCPNRVCSDKHKWCKWKL; ends and bridges not checked; cysteine pairing not given here; UniProt P56676 49-81, looked up)
N-type calcium channel inhibition (N-type calcium channels): inhibitor of N-type calcium channels
TTX-sensitive sodium channel inhibition [2]: inhibitor of N-type calcium channels and a TTX-sensitive sodium channel

CC[C@H](C)[C@H](NC(=O)[C@H](CCCCN)NC(=O)[C@H](Cc1ccc(O)cc1)NC(=O)[C@H](CCCCN)NC(=O)[C@@H]1CSSC[C@@H]2NC(=O)[C@H](CCC(=O)O)NC(=O)[C@H](CC(=O)O)NC(=O)[C@H](CCCCN)NC(=O)CNC(=O)[C@@H]3CCCN3C(=O)[C@H]([C@@H](C)O)NC(=O)[C@@H]3CSSC[C@H](NC(=O)[C@H](C(C)C)NC(=O)[C@H](Cc4c[nH]cn4)NC(=O)[C@H](CC(N)=O)NC(=O)[C@@H]4CCCN4C(=O)[C@H](CSSC[C@H](NC(=O)[C@H](C)N)C(=O)N[C@@H](CCCCN)C(=O)NCC(=O)N[C@@H]([C@@H](C)CC)C(=O)N[C@@H](Cc4ccccc4)C(=O)N[C@@H](C(C)C)C(=O)N[C@@H]([C@@H](C)O)C(=O)N3)NC2=O)C(=O)N[C@@H](CO)C(=O)N[C@@H](CO)C(=O)N[C@@H](CCCCN)C(=O)N[C@@H](Cc2c[nH]cn2)C(=O)N[C@@H](CCCCN)C(=O)N[C@@H](Cc2c[nH]c3ccccc23)C(=O)N1)C(=O)O [Cl6b] (H-ACKGIFVTCTPGKDECCPNHVCSSKHKWCKYKI-OH; disulfide 2-17, 9-22, 16-29)
Reduction of NaV1.7 channel current (NaV1.7 [3]): 49.7%

CC[C@H](C)[C@H](NC(=O)[C@H](CCCCN)NC(=O)[C@H](Cc1c[nH]c2ccccc12)NC(=O)[C@H](CCCCN)NC(=O)[C@@H]1CSSC[C@@H]2NC(=O)[C@H](CCC(=O)O)NC(=O)[C@H](CC(N)=O)NC(=O)[C@H](CCCCN)NC(=O)CNC(=O)[C@@H]3CCCN3C(=O)[C@H]([C@@H](C)O)NC(=O)[C@@H]3CSSC[C@H](NC(=O)[C@H](C(C)C)NC(=O)[C@H](CCCNC(=N)N)NC(=O)[C@H](CC(N)=O)NC(=O)[C@@H]4CCCN4C(=O)[C@H](CSSC[C@H](NC(=O)[C@H](C)N)C(=O)N[C@@H](CCCCN)C(=O)NCC(=O)N[C@@H](C(C)C)C(=O)N[C@@H](Cc4ccccc4)C(=O)N[C@@H](CC(=O)O)C(=O)N4CCC[C@H]4C(=O)N3)NC2=O)C(=O)N[C@@H](CO)C(=O)N[C@@H](CC(=O)O)C(=O)N[C@@H](CCCCN)C(=O)N[C@@H](Cc2c[nH]cn2)C(=O)N[C@@H](CCCCN)C(=O)N[C@@H](Cc2c[nH]c3ccccc23)C(=O)N1)C(=O)O [Cl6a] (H-ACKGVFDPCTPGKNECCPNRVCSDKHKWCKWKI-OH; disulfide 2-17, 9-22, 16-29; N-terminus and C-terminus assumed)
Inhibition of TTX-S sodium channels [4]: can inhibit TTX-S, but not TTX-R, sodium channels; also recorded: inhibitors of tetrodotoxin-sensitive (TTX-S), but not TTX-resistant, sodium channels; also recorded: inhibited TTX-S (NaV1.2–1.4, NaV1.6, and NaV1.7)
IC50 (rNaV1.3): 75.9 ± 6.3 nM
Inhibition of rNaV1.3 current (rNaV1.3): decreased
Inhibition of hNaV1.9 current (hNaV1.9): No inhibitory effects
Reversibility of NaV1.7 inhibition on washing (NaV1.7 [5]; 5 min wash with bath solution): irreversibly inhibit NaV1.7 channel currents; also recorded: irreversible; also recorded: sustained inhibition of NaV1.7 channel currents
τon (onset of NaV1.7 peak current inhibition) (NaV1.7 [5]; mean ± SEM): 36.2 ± 5.3 s
Fold selectivity over NaV1.4 (NaV1.7 over NaV1.4): ~ 40 fold
IC50 (mNaV1.6): 9.2 ± 1.3 nM
Inhibition of mNaV1.6 current (mNaV1.6): completely inhibited
Inhibition of rNaV1.8 current (rNaV1.8): No inhibitory effects
IC50 (rNaV1.4): 480 ± 100 nM
Inhibition of rNaV1.4 current (rNaV1.4): decreased
IC50 (rNaV1.2): 56.1 ± 13.6 nM
Inhibition of rNaV1.2 current (rNaV1.2): decreased
Inhibition of hNaV1.5 current (hNaV1.5): No inhibitory effects
IC50 (hNaV1.7): 11 ± 2.5 nM
Inhibition of hNaV1.7 current (hNaV1.7): completely inhibited
Voltage dependence of activation, k (toxin) (NaV1.7 [3]; NaV1.7, mean ± SEM, n = 6–10, control 6.2 ± 0.3 (Cl6a), 6.7 ± 0.4 (Cl6b)): 7.3 ± 0.4 mV
Voltage dependence of inactivation, k (toxin) (NaV1.7 [3]; NaV1.7, mean ± SEM, n = 6–10, control −5.4 ± 0.3 (Cl6a), −5.2 ± 0.3 (Cl6b)): −5.7 ± 0.4 mV
Voltage dependence of activation, V1/2 (toxin) (NaV1.7 [3]; NaV1.7, mean ± SEM, n = 6–10, control −19.5 ± 1.5 (Cl6a), −16.3 ± 0.4 (Cl6b)): −22.3 ± 1.7 mV
Voltage dependence of inactivation, V1/2 (toxin) (NaV1.7 [3]; NaV1.7, mean ± SEM, n = 6–10, control −78.3 ± 1.8 (Cl6a), −70.1 ± 1.5 (Cl6b)): −81.6 ± 2.4 mV
Repriming (toxin) (NaV1.7 [3]; NaV1.7, recovery at −100 mV, test pulse −10 mV, mean ± SEM, n = 9 (Cl6a), n = 7 (Cl6b), control 14.9 ± 2.4 (Cl6a), 6.3 ± 0.9 (Cl6b)): 17.6 ± 2.5 ms
Reduction of NaV1.7 channel current (NaV1.7 [3]): 52.3%
Effect on NaV1.7 activation and inactivation (gating) (NaV1.7 [3]; n = 6–10): does not alter channel activation, inactivation, or repriming kinetics; also recorded: cannot significantly change the activation kinetics
Inhibition of TTX-R sodium channels [6]: not TTX-R (NaV1.5, NaV1.8, and NaV1.9)

— article PMC7551932 (Toxins, 2020)
